Laboratory results from patent US8575197B2, “Pyrolinone derivative and pharmaceutical composition comprising the same” (Shionogi & Co., Ltd., priority 2008, dated 2013).
pIC50: −log10 of the molar value.

The molecules below were run against human P2X3 receptor (Homo sapiens (Human), UniProt P56373) (assay: P2X3 receptor inhibition, ATP-evoked Fluo-3 calcium fluorescence (FDSS 3000)). Details: C6BU-1 cell transfected with human P2X3 receptor gene; ATP-evoked Fluo-3 fluorescence.
Format: cell-based
Outline: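 C6BU-1 cells stably transfected with human P2X3, loaded with 4 μM Fluo-3-AM for 1 h at 37 °C in HEPES buffer pH 7.5 with probenecid. Compound added 5 min before 40 nM ATP solution; fluorescence followed 3 min. IC50 from ratio of peak post-ATP to baseline fluorescence.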

Chain of human P2X3 receptor (P56373 whole entry): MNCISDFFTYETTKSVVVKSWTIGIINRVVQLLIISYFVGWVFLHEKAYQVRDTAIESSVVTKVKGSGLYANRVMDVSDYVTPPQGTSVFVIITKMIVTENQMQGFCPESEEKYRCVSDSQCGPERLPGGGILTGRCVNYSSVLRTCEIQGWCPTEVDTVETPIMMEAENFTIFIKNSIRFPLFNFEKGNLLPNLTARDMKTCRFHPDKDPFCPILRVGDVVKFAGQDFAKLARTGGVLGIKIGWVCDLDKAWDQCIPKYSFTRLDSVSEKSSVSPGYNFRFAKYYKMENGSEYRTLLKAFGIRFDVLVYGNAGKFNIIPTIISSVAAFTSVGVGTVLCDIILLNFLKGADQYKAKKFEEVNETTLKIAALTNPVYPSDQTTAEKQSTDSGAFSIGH

Compared with `COc1ccccc1C1c2c(C(C)(C)C)n[nH]c2C(=O)N1c1ccc(-c2ccsc2)cc1` (stereo not drawn) [II-204], `COc1ccccc1C1c2c(C(C)(C)C)n[nH]c2C(=O)N1c1ccc(-c2ccsc2)nc1` (stereo not drawn) [II-254] is 0.93 log units higher in pIC50: 7.77 for the first, 8.70 for the second.

`CCOC(=O)c1ccc(N2C(=O)C(O)=C(C(=O)C(C)(C)C)C2c2ccccc2OC)cc1` (stereo not drawn) [Compound I-001] and `COc1ccccc1C1C(C(=O)C(C)(C)C)=C(O)C(=O)N1c1ccc(-c2ccc(C)s2)cc1` (stereo not drawn) [Compound I-210] are within 0.2 log units of each other in pIC50: 7.49 for the first, 7.33 for the second.

Going from `COc1ccccc1C1C(C(=O)c2cc[nH]c2)=C(O)C(=O)N1c1ccc(-c2csc(C)c2)cc1` (stereo not drawn) [Compound I-553] to `COc1ccccc1C1C(C(=O)CC(C)C)=C(O)C(=O)N1c1ccc(-c2csc(C)c2)cc1` (stereo not drawn) [Compound I-379], the pIC50 rises from 6.47 to 6.93 (0.46 log units).

Compared with `CC(C)CC(=O)C1=C(O)C(=O)N(c2ccc(-c3ccon3)cc2)C1c1ccccc1OCCO` (stereo not drawn) [Compound I-323], `Cc1cc(-c2ccc(N3C(=O)C(O)=C(C(=O)CC(C)C)C3c3ccccc3OCCO)cc2)cs1` (stereo not drawn) [Compound I-374] is 0.89 log units higher in pIC50: 6.51 for the first, 7.40 for the second. The second is the more potent here.

First: CCOc1ccccc1C1C(C(=O)C(C)(C)C)=C(O)C(=O)N1c1ccc(-c2ccon2)cc1 (stereo not drawn) [Compound I-059]
Second: CC(C)(C)C(=O)C1=C(O)C(=O)N(c2ccc(-c3ccon3)cc2)C1c1ccccc1OC(F)(F)F (stereo not drawn) [Compound I-019]
The pIC50 of the first is 0.29 log units lower: 6.59 for the first, 6.88 for the second.

Compared with `Cc1ccc(-c2ccc(N3C(=O)C(O)=C(C(=O)CC(C)C)C3c3cccnc3C(N)=O)cc2)s1` (stereo not drawn) [Compound I-572], `COc1ncccc1C1C(C(=O)CC(C)C)=C(O)C(=O)N1c1ccc(-c2ccoc2)cc1` (stereo not drawn) [Compound I-340] is 0.30 log units lower in pIC50: 6.77 for the first, 6.47 for the second. The first is the more potent here.

`O=C(C1=C(O)C(=O)N(c2ccc(-c3ccon3)cc2)C1C1CCCCC1)c1ccc(OC(F)(F)F)cc1` (stereo not drawn) [Compound I-026] and `COc1ccc(-c2n[nH]c3c2C(C2CCCCC2)N(Cc2cc(C)on2)C3=O)cc1` (stereo not drawn) [II-200] are within 0.2 log units of each other in pIC50: 6.47 for the first, 6.35 for the second.

Compared with `CSc1ccc(N2C(=O)C(O)=C(C(=O)C(C)C)C2c2ccccc2OCCCO)cc1` (stereo not drawn) [Compound I-476], `COCCOc1ccccc1C1C(C(=O)C(C)C)=C(O)C(=O)N1c1ccc(SC)cc1` (stereo not drawn) [Compound I-475] is 0.55 log units lower in pIC50: 7.29 for the first, 6.74 for the second.

`COCCOCc1ncccc1C1C(C(=O)C(C)(C)C)=C(O)C(=O)N1c1ccc(-c2ccsc2)cc1` (stereo not drawn) [Compound I-168] and `COc1ncccc1C1C(C(=O)C(C)(C)C)=C(O)C(=O)N1c1ccc(-c2ccsc2)cc1` (stereo not drawn) [Compound I-116] are within 0.2 log units of each other in pIC50: 6.92 for the first, 7.11 for the second.

`Cc1ncccc1C1C(C(=O)C(C)(C)C)=C(O)C(=O)N1c1ccc(-c2cccs2)cc1` (stereo not drawn) [Compound I-141] and `Cc1ncccc1C1c2c(C(C)(C)C)n[nH]c2C(=O)N1c1ccc(-c2cccs2)cc1` (stereo not drawn) [II-121] are within 0.2 log units of each other in pIC50: 6.46 for the first, 6.33 for the second.

Going from `COc1ccc2sc(N3C(=O)C(O)=C(C(=O)C(C)(C)C)C3c3ccccc3OC)nc2c1` (stereo not drawn) [Compound I-038] to `COc1ccc(C(=O)C2=C(O)C(=O)N(c3nc4cc(OC)ccc4s3)C2c2ccccc2OCCO)cc1` (stereo not drawn) [Compound I-125], the pIC50 rises from 6.03 to 6.96 (0.93 log units). The second is the more potent here.

`COc1ccccc1C1c2c(C(C)C)n[nH]c2C(=O)N1c1ccc(-c2ccsc2)c(C(N)=O)c1` (stereo not drawn) [II-242] and `COc1ccccc1C1c2c(C(C)C)n[nH]c2C(=O)N1c1ccc(-c2ccsc2)c(CO)c1` (stereo not drawn) [II-243] are within 0.2 log units of each other in pIC50: 6.82 for the first, 6.86 for the second.

Going from `CCOCOc1ccccc1C1C(C(=O)C(C)C)=C(O)C(=O)N1c1ccc(-c2nc(C)no2)cc1` (stereo not drawn) [Compound I-545] to `COCCOc1ccccc1C1C(C(=O)C(C)C)=C(O)C(=O)N1c1ccc(-c2nc(C)no2)cc1` (stereo not drawn) [Compound I-271], the pIC50 falls from 6.85 to 6.27 (0.58 log units). The first is the more potent here.

Going from `COc1ccccc1C1c2c(C(C)(C)C)n[nH]c2C(=O)N1c1ccc(-c2cc(NC(C)=O)no2)cc1` (stereo not drawn) [II-147] to `COc1ccccc1C1c2c(C(C)(C)C)n[nH]c2C(=O)N1c1ccc(-c2ncco2)cc1` (stereo not drawn) [II-209], the pIC50 rises from 6.01 to 7.06 (1.05 log units).

First: Cc1cc(-c2ccc(N3C(=O)C(O)=C(C(=O)CC(C)C)C3c3ccccc3OC(F)F)cc2)cs1 (stereo not drawn) [Compound I-377]
Second: CC(C)CC(=O)C1=C(O)C(=O)N(c2ccc(-c3ccsc3)cc2)C1c1ccccc1OC(F)F (stereo not drawn) [Compound I-290]
The pIC50 of the first is 0.46 log units lower: 6.83 for the first, 7.29 for the second. The second is the more potent here.

First: CC(C)C(=O)C1=C(O)C(=O)N(c2ccc(-c3ccsc3)cc2)C1c1ccccc1OCc1nnn[nH]1 (stereo not drawn) [Compound I-217]
Second: COc1ncccc1C1C(C(=O)C(C)C)=C(O)C(=O)N1c1ccc(-c2ccsc2)cc1 (stereo not drawn) [Compound I-187]
The pIC50 of the first is 0.85 log units higher: 7.92 for the first, 7.07 for the second.

`COCc1ccccc1C1C(C(=O)C(C)C)=C(O)C(=O)N1c1ccc(I)cc1` (stereo not drawn) [Compound I-281] and `COCc1ccccc1C1C(C(=O)C(C)C)=C(O)C(=O)N1c1ccc(-c2cc(C)on2)cc1` (stereo not drawn) [Compound I-458] are within 0.2 log units of each other in pIC50: 6.20 for the first, 6.16 for the second.

`COc1ccccc1C1c2c(CC(C)(C)C)n[nH]c2C(=O)N1c1ccc(-c2ccon2)cc1` (stereo not drawn) [II-073] and `COCCOc1ncccc1C1c2c(C(C)(C)C)n[nH]c2C(=O)N1c1ccc(-c2ccon2)cc1` (stereo not drawn) [II-033] are within 0.2 log units of each other in pIC50: 6.98 for the first, 6.93 for the second.

First: COCCOc1cc(F)ccc1C1C(C(=O)C(C)C)=C(O)C(=O)N1c1ccc(-c2ccsc2)cc1 (stereo not drawn) [Compound I-363]
Second: CC(C)C(=O)C1=C(O)C(=O)N(c2ccc(-c3ccoc3)cc2)C1c1ccccc1OCCO (stereo not drawn) [Compound I-190]
The pIC50 of the first is 0.75 log units higher: 8.15 for the first, 7.40 for the second.

Compared with `COCCOc1ccccc1C1C(C(=O)CC(C)C)=C(O)C(=O)N1c1ccc(-c2coc(C)n2)cc1` (stereo not drawn) [Compound I-391], `COCCOc1ccccc1C1C(C(=O)CC(C)C)=C(O)C(=O)N1c1ccc(-c2ccc(C)o2)cc1` (stereo not drawn) [Compound I-381] is 1.99 log units higher in pIC50: 6.16 for the first, 8.15 for the second.

First: Cc1nc(-c2ccc(N3C(=O)C(O)=C(C(=O)C(C)C)C3c3ccccc3OC(C)C)cc2)no1 (stereo not drawn) [Compound I-312]
Second: COCc1ccccc1C1C(C(=O)C(C)(C)C)=C(O)C(=O)N1c1ccc(-c2noc(C)n2)cc1 (stereo not drawn) [Compound I-051]
The pIC50 of the first is 0.71 log units higher: 7.27 for the first, 6.56 for the second. The first is the more potent here.

First: COc1ccccc1C1c2c(C(C)(C)CO)n[nH]c2C(=O)N1c1ccc(N(C)C)cc1 (stereo not drawn) [II-011]
Second: COc1ccccc1C1c2c(C(C)(C)CO)n[nH]c2C(=O)N1c1ccc(-c2nc(C)no2)cc1 (stereo not drawn) [II-138]
The pIC50 of the first is 0.86 log units lower: 6.50 for the first, 7.36 for the second. The second is the more potent here.

First: COc1ccccc1C1C(C(=O)C(C)(C)C)=C(O)C(=O)N1c1ccc(-c2ccsc2Cl)cc1 (stereo not drawn) [Compound I-192]
Second: COc1ncccc1C1C(C(=O)C(C)(C)C)=C(O)C(=O)N1c1ccc(-c2ccoc2)cc1 (stereo not drawn) [Compound I-118]
The pIC50 of the first is 0.34 log units lower: 6.21 for the first, 6.55 for the second.

First: COc1ncccc1C1c2c(C(C)(C)C)n[nH]c2C(=O)N1c1ccc(-c2cccs2)cn1 (stereo not drawn) [II-260]
Second: COCCOc1ccccc1C1c2c(C(C)(C)C)n[nH]c2C(=O)N1c1ccc(-c2ccoc2)cc1 (stereo not drawn) [II-125]
The pIC50 of the first is 0.56 log units lower: 7.44 for the first, 8.00 for the second. The second is the more potent here.

First: COC(=O)n1nc(C(C)(C)C)c2c1C(=O)N(c1ccc(Br)cc1)C2c1ccccc1OC (stereo not drawn) [II-229]
Second: COc1ccccc1C1C(S(C)(=O)=O)=C(O)C(=O)N1c1ccc(-c2ccc(C)o2)cc1 (stereo not drawn) [Compound I-468]
The pIC50 of the first is 0.76 log units higher: 7.09 for the first, 6.33 for the second.

First: COCCCOc1ncccc1C1C(C(=O)C(C)C)=C(O)C(=O)N1c1ccc(-c2ccc(C)o2)cc1 (stereo not drawn) [Compound I-471]
Second: COCOc1ccccc1C1C(C(=O)CC(C)C)=C(O)C(=O)N1c1ccc(-c2ccc(C)o2)cc1 (stereo not drawn) [Compound I-382]
The pIC50 of the first is 0.50 log units lower: 7.72 for the first, 8.22 for the second.

`CNC(=O)CCc1ccccc1C1C(C(=O)C(C)C)=C(O)C(=O)N1c1ccc(-c2ccc(C)o2)cc1` (stereo not drawn) [Compound I-535] and `CNC(=O)COc1ncccc1C1c2c(C(C)C)n[nH]c2C(=O)N1c1ccc(-c2ccsc2)cc1` (stereo not drawn) [II-053] are within 0.2 log units of each other in pIC50: 7.31 for the first, 7.46 for the second.
